Data taken from patent publication US20240262842A1, “SMALL MOLECULE INHIBITORS OF KRAS G12C MUTANT” (Merck Sharp & Dohme LLC, priority 2021, published 2024).
Read-outs that look alike come from different tables or passages of the source.

Columns and labels:
[1] = molecular target: biotinylated KRAS G12C protein (GMP-PNP loaded) and GST-tagged Ras binding domain of c-RAF (Homo sapiens, UniProt P01116, C118S/C51S/C80L/G12C); test: RAS:RAF-RBD binding assay (TR-FRET); conditions: 30-minute incubation of compound with KRAS G12C before RAF-RBD; Table 4; read-out: IC50
Sequence of biotinylated KRAS G12C protein (GMP-PNP loaded) and GST-tagged Ras binding domain of c-RAF (P01116 with tags, fused parts or gaps isoform P01116-2 G12C/C51S/C80L/C118S): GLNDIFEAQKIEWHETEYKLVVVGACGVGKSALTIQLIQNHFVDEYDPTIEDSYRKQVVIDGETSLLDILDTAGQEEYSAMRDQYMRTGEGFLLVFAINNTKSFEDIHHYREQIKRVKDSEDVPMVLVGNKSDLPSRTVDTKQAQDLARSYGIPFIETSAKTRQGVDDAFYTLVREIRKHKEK

[2] = system: MIA PaCa-2 cells; test: Growth inhibition activity on KRAS-G12C mutant cell line (CellTiter-Glo 3D); assay type: cell-based, human; conditions: MIA PaCa-2, 3-day culture with compound
Outline: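 IC50 (nM) derived from inhibition of luminescence (CellTiter-Glo 3D) relative to compound-free wells. Cells were seeded in U-bottom plates, grown 1 day, then exposed to compound for 3 days at 37 °C with 0.2% final DMSO.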

[3] = molecular target: T1, interaction between GMPPNP-bound recombinant K-Ras4B G12C mutant protein and cRAF RAS-binding domain (cRAF-RBD) (Homo sapiens, UniProt P01116, G12C); test: Inhibitory activity on interaction between KRAS G12C and cRAF (Alpha technology)
T1 construct: His-tag (N)
T1 sequence (P01116 with tags, fused parts or gaps isoform P01116-2 G12C): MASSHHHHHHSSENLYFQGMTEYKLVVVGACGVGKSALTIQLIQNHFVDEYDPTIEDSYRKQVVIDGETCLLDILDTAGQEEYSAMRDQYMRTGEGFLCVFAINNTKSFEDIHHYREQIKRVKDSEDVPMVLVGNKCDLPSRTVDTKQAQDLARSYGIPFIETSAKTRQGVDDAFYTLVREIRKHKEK
Outline: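 Alpha signal measured 1.5 h after adding cRAF-RBD (aa 50-132) and detection reagents to GMPPNP-bound KRAS G12C (aa 1-169) pretreated 1 h at 25° C with compound (pH 7.5 buffer). 0% inhibition = DMSO, 100% = GDP-loaded KRAS; IC50 by curve fit.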

[4] = Homo sapiens, MIA PaCa-2, 72 h, Table 3-1
[5] = GMPPNP-bound KRAS G12C incubated with compound 25° C. 1 hour, Table 2-1, read-out: IC50
[6] = Homo sapiens, MIA PaCa-2, 72 h, Table 3
[7] = IC50, GMPPNP-bound KRAS G12C incubated with compound 25° C. 1 hour, Table 2

Cc1nc2c3c(c(C(F)(F)F)cc2n1C)-c1cccn2c(C(=O)c4cc(F)c(NC(=O)/C=C/CNC5(C)CCOCC5)c(F)c4)cc(c12)CCO3 [Example 267, mono((E)-2-(3,5-difluoro-4-(4-((4-methyltetrahydro-2H-pyran-4-yl)ammonio)-but-2-enamido)benzoyl)-9,10-dimethyl-7-(trifluoro-methyl)-13,14-dihydro-9H-imidazo[4″,5″:5′,6′]-benzo[1′,2′:2,3]oxocino-[4,5,6-hi]indolizin-11-ium)mono(2,2,2-trifluoro-acetate)]
IC50 [1]: 3.69 nM

Cc1nc2c3c(c(C(F)(F)F)cc2n1C)-c1cccn2c(C(=O)c4cc(F)c(NC(=O)/C=C/[C@@H]5C[C@@H](F)CN5)c(F)c4)cc(c12)CCO3 [Example 260, (2S,4R)-2-((E)-3-((4-(9,10-dimethyl-7-(tri-fluoromethyl)-13,14-dihydro-9H-imidazo-[4″,5″:5′,6′]benzo[1′,2′: 2,3]oxocino[4,5,6-hi]-indolizine-2-carbonyl)-2,6-difluorophenyl)-amino)-3-oxoprop-1-en-1-yl)-4-fluoropyrrolidin-1-ium 2,2,2-trifluoro-acetate]
IC50 [1]: 11.7 nM

COCc1nc2c3c(c(OC)cc2n1C)-c1cccn2c(C(=O)c4cc(F)c(NC(=O)/C=C/CNC(C)(C)C)c(F)c4)cc(c12)CCN3C [Example 288, mono((E)-2-(4-(4-(tert-butylammonio)but-2-enamido)-3,5-difluoro-benzoyl)-7-methoxy-10-(methoxymethyl)-9,12-dimethyl-9,12,13,14-tetra-hydroimidazo[4″,5″:5′,6′]-benzo[1′,2′:2,3]azocino-[4,5,6-hi]indolizin-11-ium) mono-(2,2,2-trifluoroacetate)]
IC50 [1]: 8.15 nM

Cc1nc2c3c(c(C(F)(F)F)cc2n1C)-c1cccn2c(C(=O)c4cc(F)c(NC(=O)/C=C/CNC5CC(F)(F)C5)c(F)c4)cc(c12)CCO3 [Example 277, (E)-N-(4-((4-(9,10-dimethyl-7-(trifluoro-methyl)-13,14-dihydro-9H-imidazo[4″,5″:5′,6′]-benzo[1′,2′:2,3]oxocino-[4,5,6-hi]indolizine-2-carbonyl)-2,6-difluoro-phenyl)amino)-4-oxobut-2-en-1-yl)-3,3-difluoro-cyclobutan-1-aminium 2,2,2-trifluoroacetate]
IC50 [1]: 26.4 nM

Cc1nc2c3c(c(C(F)(F)F)cc2n1C)-c1cccn2c(C(=O)c4cc(F)c(NC(=O)/C=C/CN[C@H]5CCCC[C@H]5O)c(F)c4)cc(c12)CCO3 [Example 265]
IC50 [1]: 12.3 nM

Cc1nc2c3c(c(C(F)(F)F)cc2n1C)-c1cccn2c(C(=O)c4cc(F)c(NC(=O)/C(F)=C/CNC5CC6(COC6)C5)c(F)c4)cc(c12)CCO3 [Example 297, (Z)-4-((2-oxaspiro[3.3]-heptan-6-yl)amino)-N-(4-(9,10-dimethyl-7-(trifluoromethyl)-13,14-dihydro-9H-imidazo-[4″,5″:5′,6′]benzo[1′,2′: 2,3]oxocino[4,5,6-hi]-indolizine-2-carbonyl)-2,6-difluorophenyl)-2-fluorobut-2-enamide]
IC50 [1]: 26.7 nM

Cc1nc2c3c(c(C(F)(F)F)cc2n1C)-c1cccn2c(C(=O)c4cc(F)c(NC(=O)/C=C/CN[C@@H]5CCCC(F)(F)[C@@H]5O)c(F)c4)cc(c12)CCO3 [Example 274]
IC50 [1]: 20.4 nM

Cc1nc2c3c(c(C(F)(F)F)cc2n1C)-c1cccn2c(C(=O)c4cc(F)c(NC(=O)/C=C/CN5CC6(CCOC6)C5)c(F)c4)cc(c12)CCO3 (single isomer, unassigned) [Example 284]
IC50 [1]: 40.4 nM

CN1CCc2cc(C(=O)c3cc(F)c(NC(=O)/C=C/CNC4(C)COC4)c(F)c3)n3cccc(c23)-c2c(C(F)(F)F)cc3c(cnn3C)c21 [Example 283, (E)-N-(4-(9,12-dimethyl-7-(trifluoromethyl)-9,12,13,14-tetrahydroindolizino[8′,1′:4,5,6]azocino[2,3-e]indazole-2-carbonyl)-2,6-difluorophenyl)-4-((3-methyloxetan-3-yl)amino)but-2-enamide]
IC50 [1]: 64.7 nM

Cc1nc2c3c(c(C(F)(F)F)cc2n1C)-c1cccn2c(C(=O)c4cc(F)c(NC(=O)/C=C/CNC5(C)COC5)c(F)c4)cc(c12)CCN3C (single isomer, unassigned) [Example 71, (E)-N-(2,6-difluoro-4-(9,10,12-trimethyl-7-(trifluoromethyl)-9,12,13,14-tetrahydroimidazo[4″,5″:5′,6′]benzo[1′,2′:2,3]azocino[4,5,6-hi]indolizine-2-carbonyl)phenyl)-4-((3-methyloxetan-3-yl)amino)but-2-enamide]
IC50 [2, 4]: 9.6 nM
IC50 [3, 5]: 20.2 nM

CO[C@H]1CC[C@H](NC/C=C/C(=O)Nc2c(F)cc(C(=O)c3cn4c5c(cccc35)-c3c(C)cc5c(nc(C)n5C)c3OC[C@H]4C)cc2F)CC1 [Example 17, (E)-N-(2,6-difluoro-4-((R)-6,8,9,13-tetramethyl-12,13-dihydro-8H-imidazo[4″,5″;3′,4′]benzo[1′,2:7,8][1,4]oxazocino[6,5,4-hi]indole-2-carbonyl)phenyl)-4-(((1,4r)-4-methoxycyclohexyl)amino)but-2-enamide]
IC50 [2, 6]: 820 nM
IC50 [3, 7]: 1300 nM

Cc1cc2c(nc(C)n2C)c2c1-c1cccn3c(C(=O)c4cc(F)c(NC(=O)/C=C/CN[C@H]5CCOC5)c(F)c4)cc(c13)CCN2C (single isomer, unassigned) [Example 107]
IC50 [2, 4]: 29.7 nM
IC50 [3, 5]: 23.7 nM

CO[C@H]1CC[C@H](NC/C=C/C(=O)Nc2c(F)cc(C(=O)c3cn4c5c(cccc35)-c3c(C)cccc3OCC4)cc2F)CC1 [Example 6, (E)-N-(2,6-difluoro-4-(10-methyl-4,5-dihydrobenzo[7,8][1,4]oxazocino[6,5,4-hi]indole-1-carbonyl)phenyl)-4-(((1r,4r)-4-methoxycyclohexyl)amino)but-2-enamide]
IC50 [2, 6]: 670 nM
IC50 [3, 7]: 160 nM

CO[C@H]1CC[C@H](NC/C=C/C(=O)Nc2c(F)cc(C(=O)c3cn4c5c(cccc35)-c3c(C)cc5c(nc(C)n5C)c3N(C)CC4)cc2F)CC1 [Example 44]
IC50 [2, 6]: 10 nM
IC50 [3, 7]: 30 nM

Cc1cc2c(nc(C)n2C)c2c1-c1cccn3c(C(=O)c4cc(F)c(NC(=O)/C=C/CNC5(C)CCOCC5)c(F)c4)cc(c13)CCN2C [Example 57, (E)-N-(2,6-difluoro-4-(7,9,10,12-tetramethyl-9,12,13,14-tetrahydro-imidazo[4″,5″:5′,6′]benzo-[1′,2′:2,3]azocino[4,5,6-hi]indolizine-2-carbonyl)-phenyl)-4-((4-methyltetra-hydro-2H-pyran-4-yl)-amino)but-2-enamide]
IC50 [2, 4]: 68.5 nM
IC50 [3, 5]: 78.3 nM

COC[C@H](CO)NC/C=C/C(=O)Nc1c(F)cc(C(=O)c2cc3c4c(cccn24)-c2c(C(F)(F)F)cc4c(ncn4C)c2N(C)CC3)cc1F [Example 128, (S,E)-N-(4-(9,12-dimeth-yl-7-(trifluoromethyl)-9,12,13,14-tetrahydro-imidazo[4″,5″:5′,6′]benzo-[1′,2′:2,3]azocino[4,5,6-hi]indolizine-2-carbonyl)-2,6-difluorophenyl)-4-((1-hydroxy-3-methoxy-propan-2-yl)amino)but-2-enamide]
IC50 [2, 4]: 11.8 nM
IC50 [3, 5]: 18.8 nM

COCCn1c(C)nc2c3c(c(OC)cc21)-c1cccn2c(C(=O)c4cc(F)c(NC(=O)/C=C/CNC5(C)CCCC5)c(F)c4)cc(c12)CCO3 [Example 246, (E)-N-(2,6-difluoro-4-(7-methoxy-9-(2-methoxyethyl)-10-methyl-13,14-dihydro-9H-imidazo[4″,5″:5′,6′]benzo[1′,2′:2,3]oxocino[4,5,6-hi]indolizine-2-carbonyl)phenyl)-4-((1-methylcyclopentyl)amino)but-2-enamide]
IC50 [2, 4]: 17.2 nM
IC50 [3, 5]: 13.6 nM

CN1CCc2cc(C(=O)c3cc(F)c(NC(=O)/C=C/CN4CC[C@H]4C(C)(C)O)c(F)c3)n3cccc(c23)-c2c(C(F)(F)F)cc3c(ncn3C)c21 (single isomer, unassigned) [Example 180]
IC50 [2, 4]: 12.7 nM
IC50 [3, 5]: 49.3 nM

Cc1cc2c(nc(C)n2C)c2c1-c1cccc3c(C(=O)c4cc(F)c(NC(=O)/C=C/CNC5(C)COC5)c(F)c4)cn(c13)CCN2C (single isomer, unassigned) [Example 65, (E)-N-(2,6-difluoro-4-(6,8,9,11-tetramethyl-8,11,12,13-tetrahydro-imidazo[4″,5″:5′,6′]benzo-[1′,2′:5,6][1,4]diazocino-[7,8,1-hi]indole-2-carbon-yl)phenyl)-4-((3-methyl-oxetan-3-yl)amino)but-2-enamide]
IC50 [2, 4]: 95.1 nM
IC50 ([3]; IC50, GMPPNP-bound KRAS G12C incubated with compound 25° C. 1 hour, Table 2-1): 69.5 nM

CN1CCc2cc(C(=O)c3cc(F)c(NC(=O)/C=C/CN4[C@@H]5CC[C@H]4[C@H](O)C5)c(F)c3)n3cccc(c23)-c2c(C(F)(F)F)cc3c(ncn3C)c21 (single isomer, unassigned) [Example 207]
IC50 ([2]; Table 3-1): 11.2 nM
IC50 [3, 5]: 26.9 nM
